Assay [1] addresses MAT2A (Homo sapiens (Human), UniProt P31153). In words: MAT2A biochemical test (inorganic phosphate colorimetric, PiColorLock). The note with it: read-out: MAT2A inhibitory Activity IC50. A digest of the protocol:
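Compounds tested from 10 μM top concentration in 3-fold dilutions, preincubated 120 min at room temperature with MAT2A ([…] final) in Tris/KCl/MgCl2/EDTA/BSA buffer. Reaction started with […] L-methionine and 400 μM ATP, run 90 min at room temperature; phosphate read by PiColorLock after 30 min. IC50 fitted from % inhibition versus no-enzyme and DMSO controls.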

In assay [2] the test system is HCT116 MTAP^−/− cells. Kind of assay: Determination of intracellular SAM level by LC-MS/MS. In kind it is cell-based. The following applies: Homo sapiens, HCT-116, 6 h, read-out: SAM production inhibitory activity IC50. The protocol: Test Example 2. Determination of Intracellular SAM Level
The brief introduction of the test principle: After the test MAT2A inhibitor was incubated with cancer cells for a period of time, the cells were lysed with a stop reagent to quench the activity of the MAT2A enzyme. The catalytic product SAM of MAT2A in the cell lysate was quantitatively determined by LC-MS/MS, and thus the activity of MAT2A in the cell was reflected.
(§1) Reference: The experiment referred to the method disclosed in patent WO2018045071.
Material and cell: HCT116 MTAP^−/− cells were purchased from KYinno; fetal bovine serum, McCoy's 5a culture medium, and penicillin-streptomycin were purchased from Gibco Company (U.S.), and 96-well plates were purchased from Corning Company (U.S.).
Cell culture: HCT116 MTAP^−/− cells were cultured with a McCoy's 5a medium containing 10% fetal bovine serum+1% penicillin-streptomycin at 37° C. with 5% CO2. Cells at logarithmic growth phase were available for the experiment.
LC-MS/MS detection: The effect of the compound on the SAM production level in HCT116 MTAP^−/− cell strains was detected by LC-MS/MS. The cells were adjusted to a concentration of 50000 cells per well, seeded on a 96-well plate, and incubated overnight at 37° C. with 5% CO2. In the experimental group, the test compound was dissolved in DMSO, diluted sequentially with DMSO and a culture medium, and transferred to a cell plate at a final concentration of 10 μM, 3-fold dilution. The cells were continuously cultured at 37° C. with 5% CO2 for 6 h. The supernatant was pipetted off. After the cells were washed once with PBS, glacial acetic acid was added to lyse the cells. After the lysate was processed, the SAM concentration was determined by LC-MS/MS analysis.
A negative control group and a positive control group were respectively used as Bottom and Top. The negative control group was added with 10 μM positive compound (compound 072 of Example 51 of patent WO2021139775A1) in the same volume, and other operations were consistent with those of the experimental group. The positive control group was not added with the test compound, only added with DMSO in the same volume, and other operations were consistent with those of the experimental group.
(§2) The % Compound inhibition was calculated and fitted to give the IC50 of the compound.
% Compound inhibition=1−100%×(Signal−Bottom)/(Top−Bottom)
(§3) Signal referred to the signal value of the experimental group, Bottom referred to the average signal value of the negative control group, and Top referred to the average signal value of the positive control group.

For assay [3], the system named is HCT116 MTAP^−/− cells. In words: Cell proliferation inhibition test (Cell-Titer Glo), HCT116 MTAP−/−. The note with it: Homo sapiens, HCT-116, 144 h, 6 days, read-out: HCT116 MTAP−/− Antiproliferative activity IC50. In kind it is cell-based, human. The protocol:
(§4) Test Example 3. Cell Proliferation Inhibition Test of Human Colon Cancer HCT116 WT Cells and HCT116 MTAP-1-Cells
(§5) The brief introduction of the test principle: After the test MAT2A inhibitor was incubated with cancer cells for a period of time, the effect of the test compound on cell proliferation was measured using a cell proliferation count method based on the ATP content.
as §1
(§6) Material and cell: HCT116 WT cells and HCT116 MTAP^−/− cells were purchased from KYinno; fetal bovine serum, McCoy's 5a culture medium, and penicillin-streptomycin were purchased from Gibco Company (U.S.), 96-well plates were purchased from Corning Company (U.S.), and the Cell-Titer Glo reagent was purchased from Promega Company (U.S.).
(§7) Cell culture: HCT116 WT cells and HCT116 MTAP^−/− cells were cultured with a McCoy's 5a medium containing 10% fetal bovine serum+1% penicillin-streptomycin at 37° C. with 5% CO2.
(§8) Cells at logarithmic growth phase were available for the experiment.
(§9) Cell proliferation activity test: The Cell-Titer Glo reagent was used to test the compound for inhibitory activity on proliferation of both HCT116 WT and HCT116 MTAP^−/− cell strains. The cells were adjusted to a concentration of 400 cells per well, seeded on a 96-well plate, and incubated overnight at 37° C. with 5% CO2.
(§10) In the experimental group, the test compound was diluted sequentially with DMSO and a culture medium, and transferred to a cell plate at a final concentration of 10 μM, 3-fold dilution. The cells were continuously cultured at 37° C. with 5% CO2 for 6 days. The Cell-Titer Glo reagent was added and the cell activity was measured.
(§11) A negative control group and a positive control group were respectively used as Bottom and Top. The negative control group was not added with cells, only added with the culture medium in the same volume, and other operations were consistent with those of the experimental group. The positive control group was not added with the test compound, only added with DMSO in the same volume, and other operations were consistent with those of the experimental group.
as §2
(§12) % Compound inhibition=1-100%×(Signal−Bottom)/(Top−Bottom).
as §3
(§13) HCT116 MTAP^−/− cells are cells not expressing MTAP protein obtained by site-directed knockout of wild type HCT116 (HCT116 WT) cells by gene knockout. Synthetic lethality will occur due to MAT2A inhibition and the deletion of MTAP, thereby causing tumor cell death. The activity and selectivity of the MAT2A inhibitor can be evaluated by testing the antiproliferative activity of the MAT2A inhibitor on human colon cancer HCT116 MTAP^−/− cells and human colon cancer HCT116 WT.

The subject of assay [4] is HCT116 WT cells. Kind of assay: Cell proliferation inhibition test (Cell-Titer Glo), HCT116 WT. In kind it is cell-based, human. The following applies: Homo sapiens, HCT-116, 144 h, 6 days, read-out: HCT116 WT Antiproliferative activity IC50. The protocol:
as §4, §5, §1, §6, §7, §8, §9, §10, §11, §2, §12, §3, §13

Read-outs that look alike come from different tables or passages of the source.

Chain of MAT2A (P31153 whole entry): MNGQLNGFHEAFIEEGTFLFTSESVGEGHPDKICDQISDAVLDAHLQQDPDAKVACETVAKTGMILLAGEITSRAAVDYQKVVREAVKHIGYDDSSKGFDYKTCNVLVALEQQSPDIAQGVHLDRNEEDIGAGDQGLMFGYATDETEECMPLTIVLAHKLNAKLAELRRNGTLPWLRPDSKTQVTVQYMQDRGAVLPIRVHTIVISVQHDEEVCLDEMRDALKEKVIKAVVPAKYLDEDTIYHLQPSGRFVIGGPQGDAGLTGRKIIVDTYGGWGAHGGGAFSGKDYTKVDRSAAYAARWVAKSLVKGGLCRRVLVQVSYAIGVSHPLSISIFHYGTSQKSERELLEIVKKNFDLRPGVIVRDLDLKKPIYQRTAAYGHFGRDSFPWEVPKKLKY

Regarding `Cn1cnc2c(=O)n(-c3ccccc3Cl)c3nc(C(F)(F)F)ccc3c21` [Compound 2, 5-(2-chlorophenyl)-1-methyl-7-(trifluoromethyl)-1,5-dihydro-4H-imidazo[4,5-c][1,8]naphthyridin-4-one], the IC50 in assay [1] (class symbols) is below 100 nM; in assay [1] (numeric values), 69.3 nM; in assay [2] it was 7.4 nM; in assay [3], 529 nM; in assay [4] it was 4770 nM.
For `Cc1cccc(-n2c(=O)c3ncn(C)c3c3ccc(C(F)(F)F)nc32)c1Cl` [Compound 36, 5-(2-chloro-3-methylphenyl)-1-methyl-7-(trifluoromethyl)-1,5-dihydro-4H-imidazo[4,5-c][1,8]naphthyridin-4-one], in that order: below 100 nM, 52.6 nM, 5.6 nM, 81.5 nM and 9970 nM.
For `Cn1cnc2c(=O)n(-c3cccc(Cl)c3Cl)c3nc(C(F)(F)F)ccc3c21` [Compound 37, 5-(2,3-dichlorophenyl)-1-methyl-7-(trifluoromethyl)-1,5-dihydro-4H-imidazo[4,5-c][1,8]naphthyridin-4-one], in that order: below 100 nM, 48.3 nM, 8.8 nM, 169 nM and 9060 nM.
